In series [1] the test system is FluA H1N1 PR8. As to the kind of experiment: microbe, parasite or virus in culture. The following applies: Influenza A virus, 48 h; MDCK cells, CPE inhibition, 2 days; positive controls; read-out: Antiviral activity EC50 FluA H1N1 PR8. Type of series: cell-based.
For series [2], the system named is FluA H3N2 HongKong. As to the kind of experiment: microbe, parasite or virus in culture. The following applies: for EC50: Influenza A virus, H3N2, 48 h, MDCK cells, CPE inhibition, 2 days, positive controls, read-out: Antiviral activity EC50 FluA H3N2 HongKong. Type of series: cell-based, influenza A virus.
For series [3], the system named is FluB Lee. As to the kind of experiment: Cytopathic effect (CPE) inhibition test, Flu B Lee. The note with it: read-out: Antiviral activity EC50 FluB Lee, MDCK cells, 2 days, positive controls. (Cytopathic effects are the visible damage that an infection or toxin causes in cultured cells.)
A short description of series [4]: in vitro. The note with it: dog.

In general, EC50 refers to the midpoint of the concentration-response curve.

Take `NC(=O)c1ncn([C@@H]2O[C@H](CO)[C@@H](O)[C@H]2O)n1` [RBV, ribavirin]: the EC50 in series [1] was determined as 29.9 µM; in series [2] it was 13.4 µM; in series [3], 19.6 µM.

In turn, `NC12CC3CC(CC(C3)C1)C2` [AMT, amantadine] registered a CC50 in series [4] above 100 µM. Further, the values for the EC50 in series [1], in series [2] and in series [3] were above 100 µM, 2.3 µM and above 100 µM, respectively. Moreover, the “Selectivity index FluA H3N2 HongKong” value in series [2] is listed as above 43.5.

For the origin of these results see US20220054576A1, “PHARMACEUTICAL COMPOSITION COMPRISING EXTRACT FROM CAMELLIA JAPONICA AS ACTIVE INGREDIENT FOR PREVENTION AND TREATMENT OF VIRAL INFECTION” (HUSCION CO., LTD., priority 2019, published 2022).
